Measurements taken from US7611863B2, “Selective staining of biomembranes using voltage-sensitive dyes” (Max-Planck-Gesellschaft zur Foerderung der Wissenschaften …, priority 2004, dated 2009).

Tests used:
[1] = Dye-lipid binding by fluorescence lipid titration; assay type: physicochemical; conditions: for KA/KP ratio of binding constants of alcohol and phosphate: liposome suspensions
Experimental: Dye-lipid binding. The binding of the dyes to lipid membranes was determined by fluorescence lipid titration^21 with large unilamellar vesicles (LUVs) made of 1-palmitoyl-2-oleoyl-phosphatidylcholine (POPC). The purity of the lipids was checked by 2-dimensional TLC^22. The vesicles were made by extrusion^23 in Tris-NaCl buffer (20 mM Tris, 100 mM NaCl, pH 8.1), using an extrusion apparatus and polycarbonate filters with 100 nm pore size (both Avestin Europe, Mannheim, Germany). Vesicle size was determined by quasielastic light scattering using an argon ion laser (Spectra-Physics, Darmstadt, Germany), a photomultiplier (Brookhaven Instruments, Vienna, Austria) and a correlator (ALV-5000, Langen, Germany). The lipid concentration was determined by a chromogenic enzyme assay (Biomerieux, Marcy I'Etoile, France). The standard deviation of three concentration measurements for every vesicle preparation was always below 4%. Vesicles were stored under argon at 4° C. in 15 ml Falcon Centrifuge Tubes (BD Labware Europe, Le Pont de Claix, France) and used within three days.
To measure dye binding constants, we prepared 1 mM solutions of the dyes 1-3 by ultrasonication in Ethanol (1) or Tris-NaCl buffer (2,3). […] In the same buffer, suspensions of POPC vesicles with concentrations ranging from 100 nM to 10 mM were prepared by dilution of stock solutions. Dye and lipid were pre-thermostatted to 25° C. […] The fluorescence emission recorded at 600 nm with excitation at 488 nm was used for the evaluation of the partition coefficients.
Dye binding to lipid. When styryl hemicyanines bind to lipid bilayers, their quantum yield of fluorescence is enhanced. […] We take advantage of that effect to examine the binding of Di-4-ASPP phosphate and Di-4-ASPP alcohol to lipid membranes by fluorescence titration^21. For comparison Di-4-ASPBS was also included in the investigation.
Dispersions of large lipid vesicles (Ø≈100 nm) were made from palmitoyl-oleoyl-phosphatidylcholine (POPC) with lipid concentrations ranging over five orders of magnitude. […] The fluorescence intensity was enhanced with increasing concentration of lipid for all three dyes. The enhancement was shifted to higher lipid concentrations in the order Di-4-ASPP alcohol, Di-4-ASPBS and Di-4-ASPP phosphate.
Binding. The dyes Di-10-phosphato-ASPBS (Di-10P-ASPBS) and Di-12-phosphato-ASPBS (Di-12P-ASPBS) as well as the corresponding products after enzymatic hydrolysis Di-10-hydroxy-ASPBS (Di-10A-ASPBS) and Di-12-hydroxy-ASPBS (Di-12A-ASPBS) were synthesized by organic chemical methods. Their binding to lipid membranes was tested by fluorescence lipid titration (cf. page 15, section dye binding to lipid). The binding constants amounted to 27 M^−1 (Di-10P-ASPBS), 250,000 M^−1 (Di-10A-ASPBS), 2100 M^−1 (Di-12P-ASPBS) and 3,000,000 M^−1 (Di-12P-ASPBS) (FIGS. 14 and 15 (center and right hand side)). The difference in binding constants between dye alcohol and dye phosphates (or dye precursors) therefore amounted to a factor of 10,000 for the pair Di-10P-ASPBS/Di-10A-ASPBS and to a factor of 1000 for the pair Di-12P-ASPBS/Di-12A-ASPBS. The binding curve for the more lipophilic pair Di-12P-ASPBS/Di-12A-ASPBS is shifted to […] lipid concentrations.

[2] = Enzyme induced staining of liposomes; assay type: biochemical; conditions: 100 μM lipid; 0.43 μM and 4.31 μM substrate
Experimental: Enzyme induced staining of liposomes. We studied enzymatic hydrolysis of Di-4-ASPP phosphate in the presence of large unilamellar POPC vesicles (LUVs) to observe enzyme induced staining. Tris-NaCl Buffer was used for the preparation of all solutions. To 550 μl of a 200 μM solution of POPC vesicles in a cuvette, an equal volume of Di-4-ASPP phosphate was added to yield concentrations between 0.1 μM and 10.7 μM. 10 μl of PLAP (18.6 DEA Units/ml) were added and the suspension was mixed by pipetting. The cuvette was held at 25° C. Fluorescence (excitation 488 nm, emission 600 nm) was recorded before and after addition of the enzyme with a resolution of 1 sec. Initial velocities were determined from the slope of the first 10 to 20 seconds of the fluorescence traces.
Enzyme Induced staining of liposomes. Now, we combined the two previous experiments. The dye phosphate was hydrolysed by phosphatase in the presence of lipid vesicles. The reaction was observed by the enhancement of fluorescence due to the enhanced binding of the dye alcohol to the lipid. The fluorescence intensity of a vesicle suspension (100 μM lipid) was recorded before and after the addition of the phosphatase with 0.43 μM and 4.31 μM Di-4-ASPP phosphate. […] This corresponds to the ratio of the fluorescence lipid titration data of alcohol and phosphate at 100 μM lipid.

[3] = test system: phosphatase expressing cells; experiment: Destaining of cells after enzyme induced staining; assay type: cell-based
Experimental: FIG. 18. Destaining. Cells were incubated with Di-12P-ASPBS for 30 seconds, then the medium containing the dye precursor was removed and the cells were washed twice in buffer containing no dye. Fluorescence images were recorded with excitation filter 450/50 nm, emission filter 510 nm, dichroic mirror 505 nm. A. Brightfield image of cells and fluorescence images of cells illustrating destaining of the cell membrane by diffusion of the dye into the bulk medium. B. Time course of destaining. The maximum fluorescence intensity of the membrane is plotted vs. time.
Destaining. […] Cells were incubated with Di-12P-ASPBS for 30 seconds, then the medium containing the dye precursor was removed and the cells were washed twice in buffer containing no dye.

Row | average binding constant K to lipid membrane ([1]; POPC vesicles, Tris-NaCl buffer pH 8.1, 25° C., dye 0.5 μM) [M⁻¹] | KA/KP ratio of binding constants of alcohol and phosphate ([1]; dye concentration 9.8 μM) | KA/KP ratio of binding constants of alcohol and phosphate ([1]; low dye concentrations) | increment of the binding energy Δ(ΔG) relative to the alcohol ([1]; −RT ln(K/KA)) [kcal/mol] | enhancement of fluorescence intensity of vesicle suspension after addition of phosphatase [2] | difference in binding constants between dye alcohol and dye phosphate (precursor) ([1]; pair precursor/product dye) [factor] | Compound | membrane leaflet to which the dye binds [3] | fluorescence of stained membranes over time after washing ([3]; diffusion of bound dye to bulk medium) | selectivity of staining after 30 seconds incubation and washing ([3]; medium removed, washed twice)
1 | 1140 ± 140 | ≈ 7 | ≈ 16 | 1.63 | about sixfold |  | CCCCN(CCCC)c1ccc(/C=C/c2cc[n+](CCCOP(=O)([O-])O)cc2)cc1 [Di-4-ASPP phosphate] |  |  | 
2 |  |  |  |  |  | 1000 | Di-12-phosphato-ASPBS [Di-12P-ASPBS] | binds almost exclusively to the extracellular leaflet | the fluorescence intensity of the stained membranes declined | selective staining of phosphatase expressing cells could be observed
